Like-named read-outs stand apart in the source and are kept apart here.
Tests used:
[1] = tested on: dopaminergic neurons derived from sPD patients (iNeurons); experiment: Activated caspase 3 immunofluorescence staining in iNeurons; assay type: cell-based, human; conditions: untreated sPD 162
Description: (§1) Briefly, iNPCs are plated in a 6-well plate and cultured for 2 days in DMEM/F-12 medium with Glutamax™ supplemented with 1% NEAA, 2% B27 (Gibco) and 2.5 μM of DAPT. On day 3, DAPT is removed and the medium is supplemented with 1 μM smoothened agonist (SAG) and FGF8 (75 ng/ml) for additional 10 days. Neurons are replated at this stage. Subsequently SAG and FGF8 are withdrawn and replaced with BDNF (30 ng/ml), GDNF (30 ng/ml), TGF-b3 […] and dcAMP (2 mM, Sigma) for 15 days.
Cells are plated into 96 well plates and fixed using 4% paraformaldehyde for 30 minutes. After PBS washes cells are permeabilised using 0.1% Triton™ X-100 for 10 minutes and blocked using 5% goat serum for 1 hour. Cells are incubated with primary antibodies tyrosine hydroxylase (St John's Laboratory); DAT (Abcam); Tuj (Millipore); Tom20 (BD Biosciences); activated caspase 3 (Cell Signaling); alpha synuclein (Cell Signaling); phosphorylated alpha synuclein (Millipore) at 4° C. for 16 hours. Cells are washed using PBS-Tween® and incubated with Alexa Fluor™-conjugated secondary antibodies 488 and 568 (Invitrogen) and Hoescht (Sigma) 1 μM prior to imaging. Imaging was performed using the Opera Phenix™ high content imaging system (Perkin Elmer).

[2] = tested on: sporadic PD patient fibroblasts; experiment: Mitochondrial membrane potential (MMP, TMRM) in sporadic PD patient fibroblasts; assay type: cell-based; conditions: Homo sapiens, Fibroblast, 24 h
Description: (§2) Fibroblasts were cultured in DMEM (Invitrogen) and routinely subcultured every 3-5 days using trypsin to dissociate them.
Fibroblasts were cultured and plated into a Griener black 384 pClear® plate at 10000 cells per well in 50 μl of media volume. The plates are left overnight in an incubator to allow the fibroblasts to adhere to the plate surface. The following morning the Glucose based medium is replaced with 25 μl of Galactose based media. The plates were then dosed with the compounds using an ECHO® 550 liquid handling system. The wells were dosed to provide an 8-point concentration range of 0.06 nM-300 nM of compound. After dosing the wells are topped up with a further 25 μl of Galactose based medium and then left in an incubator for 24 hours. After 24 hours, the medium is removed from the wells and replaced with 25 ul phenol free Minimal essential medium with 100 nM TMRM (Sigma) and 10 μM Hoechst Stain (Sigma). The plate is returned to the incubator for another hour after which the stain medium is removed and replaced with 25 ul Phenol free MEM. The plate is then imaged using an IN Cell high content microscope (GE Healthcare) with 10 fields of view per well in 2 channels, Cy3 excitation 542 nm, emission 604-64 nm; and the DAPI excitation 350 nm, emission 450-55 nm at 37° C. with CO2. After imaging the plate is disposed of and the images are Data mined using the INCell developer Toolkit (GE Healthcare).
After the assays had been repeated in triplicate per line and compound the data was then inputted into Graph pad Prism 7 software suite where a dose response curve is generated using the default “[Agonist] vs response (three parameters)” equation.
From this EC50 values, lowest response and maximal response were taken and used to calculate the Geometric mean between the 5 different lines assessed.
The mitochondrial membrane potential was measured in fibroblasts from 6 (Table 1) or 3 (Table 2) patients with sporadic Parkinson's disease when treated with Compounds of the invention or Comparator compounds. The results are shown in Tables 1 and 2, where “Bottom”=max response with lowest dose of compound (0.06 nM) and “top”=max response with highest dose of compound (300 nM).

[3] = tested on: dopaminergic neurons derived from sPD patients (iNeurons); experiment: Mitochondrial function and neuronal morphology measurements in iNeurons from sPD patients; assay type: cell-based, human; conditions: for EC50: Homo sapiens, Neuron
Description: as §2, §1
Cells are plated in 96 well plates; for live imaging cells are incubated for one hour at 37 degree with 80 nM tetramethlyrhodamine (TMRM), 1 μM LysoTracker® Green (Invitrogen) and Hoechst Stain solution (Sigma) at 1 μM before imaging using Opera Phenix™. Cellular ATP measurements are undertaken using ATPlite kit (Perkin Elmer) as per manufacturer's instructions. Mitochondrial reactive oxygen species generation was assessed using mitochondrial NpFR2 (probe; a kind gift from Dr Liz New, University of Sydney, Australia) at 20 μM and Hoechst stain solution at 1 μM for 30 mins at 37° C., then the dyes are removed and cells images using Opera Phenix™. Images generated from the live imaging experiments were analysed using Harmony® (Perkin Elmer software). We developed protocols in order to segment nucleus, cell boundary and processes, mitochondria, lysosomes, autophagosomes. We only analysed the z projection images collected from the z stacks.

[4] = tested on: mitochondrial respiratory chain complex I; experiment: Complex I assay, left striatum brain homogenate of mice dosed with or without MPTP; assay type: in vivo, mouse; conditions: for Complex I activity with concurrent MPTP treatment: left striatum
Description: Ex vivo mice brain was homogenated in a buffer of 250 mM sucrose, 20 mM HEPES, 3 mM EDTA, pH 7.5 at 4° C. Homogenisation was carried out using a Dounce homogenizer, for cortex samples, and by repetitive passage through a 0.5 mm syringe for isolated striatum. Samples were then incubated with 30 μl of detergent from the AbCam colorimetric Complex I assay kit on ice for 20 minutes. Samples are then centrifuged at 13,000 rpm for 30 mins. Triplicate samples per condition were blocked using the kit blocking buffer on the AbCam colorimetric Complex I assay kit plate for 3 hours. Samples are then washed using the kit wash buffer 3 times before the addition of the kit assay buffer containing NADH and colorimetric dye. The assay plate is read on a plate reader in a kinetic assay programme reading 450 nm in a 30 second interval for 50 minutes.

[5] = tested on: sAD and familial AD (PSEN1 mutants) patient fibroblasts; experiment: Total cellular ATP levels in Alzheimer's disease patient fibroblasts; assay type: cell-based, human; conditions: 24 hour treatment at 100 nM, 21% restores to control levels
Description: Briefly, fibroblasts were cultured as and plated into white 384 well plates with 5000 cells per well in 50 μl of media volume. The plates are left overnight in an incubator to allow the fibroblasts to adhere to the plate surface. The following morning the Glucose based medium is replaced with 25 μl of Galactose based medium. The compounds are added to the plates using a ECHO 550 liquid handling system. The wells were dosed to provide an 8-point concentration range of 0.06 nM-300 nM of compound. After dosing the wells are topped up with a further 25 μl of Galactose based medium and then left in an incubator for 24 hours. Following this incubation the medium is removed from the plate and the wells are washed twice with sterile PBS. The wells are filled with 25 μl of Sterile PBS followed by 12.5 μl of Lysis solution from the ATPlite™ Luminescence ATP detection assay system (Perkin Elmer), including 16 cell free wells to use as blank controls. The plate is then placed on a rotary shaker for 5 mins at 700 rpm. Following the shaking 12.5 μl of ATP substrate solution (Perkin Elmer) is added to each well and a further 5 min of shaking. The plate is then placed in darkness for 10 minutes prior to reading. Using a PHERAStar® plate reader, luminescence intensity is recorded. Following the ATP assay the plates are immediately assayed for DNA content in a CyQUANT® assay.
Immediately following The ATP assay DNA content is assessed with the CyQUANT® NF Cell Proliferation Assay Kit (ThermoFisher). CyQUANT® buffer is prepared immediately before the assay and is comprised of 1 ul CyQUANT® dye per ml×1 HBSS solution. 12.5 ul of CyQUANT® buffer is added to each well. Plate left in incubator for 1 hour then read on a PHERAStar® Plate reader with excitation at 497 nm and emission at 520 nm.
Data shown in the Table 6 below is the mean increase in ATP levels after 24 hour treatment with compounds at 100 nM concentration.

C[C@H](CCC(=O)O)[C@H]1CC[C@H]2[C@@H]3[C@@H](O)C[C@@H]4C[C@@H](O)C(F)(F)C[C@]4(C)[C@H]3CC[C@]12C [Compound 7, 2,2-difluoro-3β,7β-dihydroxy-5β-cholanic acid]
Activated caspase 3 levels [1]: 100 % of level in iNeurons from Controls
activity at 60 pM ([2]; read-out: MMP Bottom (% of vehicle treated)): 100%
EC50 ([2]; read-out: MMP EC50 (nM)): 4.07 nM
activity at 0.3 µM ([2]; read-out: MMP Top (% of vehicle treated)): 114%
EC50 ([3]; read-out: ATP EC50 (nM)): 0.8 nM
EC50 ([3]; read-out: MMP EC50 (nM)): 0.52 nM
Neuronal morphology (elongation; % controls) ([3]; iNeurons from sPD patients, untreated sPD 48): 78 % controls
ATP normalisation (% of controls) ([3]; iNeurons from sPD patients, untreated sPD 50): 101 % of controls
MMP normalisation (% of controls) ([3]; iNeurons from sPD patients, untreated sPD 52): 100 % of controls
ROS (Normalisation) (% controls) ([3]; iNeurons from sPD patients, untreated sPD 115): 103 % controls
Increase in complex I activity over untreated controls ([4]; left striatum mouse brain homogenate, Vehicle+12 mg Compound 7 alone, FIG. 4): approximately 30%
Complex I activity with concurrent MPTP treatment ([4]; MPTP + 1 mg Compound 7, p<0.01 vs MPTP alone): retains complex I at normal levels
Complex I activity with concurrent MPTP treatment ([4]; MPTP + increased doses (4 mg, 12 mg) of Compound 7): appears to prevent any loss of complex I activity by MPTP
% increase over vehicle treated (mean increase in ATP levels) [5]: 24%

— US20220073557A1, “FLUORINATED BILE ACIDS” (NZP UK LIMITED, priority 2018, published 2022)
